In patent US10588317B2, “Isoxazoline-substituted benzamides and analogues as insecticides” (priority 2015, dated 2020):

What was measured:
Format in all cases: in vivo
Diabrotica balteata = Diabrotica balteata (corn root worm), sprayed maize sprouts; conditions: 96 h, application rate 200 ppm, L2 larvae, 4 days after infestation, read-out: effect in at least one of the two categories (mortality or growth inhibition)
Method in brief: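 Maize sprouts on agar sprayed with aqueous dilutions of DMSO stocks, dried, then infested with L2 larvae (6–10 per well). Mortality and growth inhibition scored against untreated controls 4 days after infestation, at 200 ppm application rate.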

Euschistus heros = Euschistus heros (neotropical brown stink bug), sprayed soybean leaves; conditions: 120 h, application rate 200 ppm, N2 nymphs, 5 days after infestation, read-out: effect in at least one of the two categories (mortality or growth inhibition)
Method in brief: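 Soybean leaves on agar sprayed with aqueous dilutions of DMSO stocks, dried, then infested with N2 nymphs. Mortality and growth inhibition scored against untreated samples 5 days after infestation; application rate 200 ppm.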

Myzus persicae = Myzus persicae (green peach aphid): feeding/contact activity; conditions: 144 h, application rate 200 ppm, aphid population of mixed ages, 6 days after infestation, read-out: mortality
Protocol: (§1) Sunflower leaf discs were placed onto agar in a 24-well microtiter plate and sprayed with aqueous test solutions prepared from 10'000 ppm DMSO stock solutions. After drying, the leaf discs were infested with an aphid population of mixed ages. The samples were assessed for mortality 6 days after infestation.

Plutella xylostella = Plutella xylostella (diamond back moth), artificial diet; conditions: 120 h, application rate 200 ppm, L2 larvae, 5 days after infestation, read-out: effect in at least one of the two categories (mortality or growth inhibition)
Method in brief: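 Artificial diet in 24-well plates treated with aqueous test solutions made from 10'000 ppm DMSO stocks, dried, then infested with L2 larvae (10 to 15 per well). Mortality and growth inhibition scored against untreated samples 5 days after infestation; activity cut-off at least 80% in either category at 200 ppm.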

Spodoptera littoralis [1] = experiment: Spodoptera littoralis (Egyptian cotton leaf worm), sprayed cotton leaf discs; conditions: foliar, 72 h, application rate 200 ppm, L1 larvae, 3 days after infestation, read-out: control (mortality, anti-feeding effect, growth inhibition)
Method in brief: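 Cotton leaf discs on agar sprayed with aqueous test solutions made from 10'000 ppm DMSO stock; after drying, infested with five L1 larvae. Mortality, anti-feeding and growth inhibition scored versus untreated samples 3 days after infestation; control counted when any category exceeds untreated.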

Spodoptera littoralis [2] = experiment: Spodoptera littoralis (Egyptian cotton leaf worm), uptake by lettuce roots from agar; conditions: 144 h, read-out: effect in at least one of the three categories (mortality, anti-feeding, or growth inhibition)
Method in brief: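 Compound from 10'000 ppm DMSO stocks was mixed into agar, and lettuce grew on it for 7 days to take it up via roots. Cut leaves were infested with Spodoptera eggs; mortality, anti-feedant effect and growth inhibition scored 6 days later versus untreated samples.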

Tetranychus urticae = Tetranychus urticae (two-spotted spider mite): feeding/contact activity; conditions: 192 h, application rate 200 ppm, mixed population (mobile stages), 8 days after infestation, read-out: mortality
Protocol: Bean leaf discs on agar in 24-well microtiter plates were sprayed with aqueous test solutions prepared from 10'000 ppm DMSO stock solutions. After drying the leaf discs were infested with a mite population of mixed ages. The samples were assessed for mortality on mixed population (mobile stages) 8 days after infestation.

Thrips tabaci = Thrips tabaci (onion thrips): feeding/contact activity; conditions: 144 h, application rate 200 ppm, Thrips population of mixed ages, 6 days after infestation, read-out: mortality
Protocol: as §1, with “on” for “onto”, “in” for “in a”, “plates” for “plate”, “drying” for “drying,”, “a Thrips” for “an aphid”

C=CCNS(=O)(=O)N1CC(NC(=O)c2ccc(C3=NO[C@@](c4cc(Cl)c(F)c(Cl)c4)(C(F)(F)F)C3)cc2C)CO1 (stereo partly shown) [Compound A105]
≥ 80%: percent effect (mortality or growth inhibition) at 200 ppm (Diabrotica balteata) | percent effect (mortality or growth inhibition) at 200 ppm (Euschistus heros) | mortality at 200 ppm (Myzus persicae) | percent effect (mortality or growth inhibition) at 200 ppm (Plutella xylostella) | mortality at 200 ppm (Spodoptera littoralis [1]) | percent control (mortality, anti-feedant effect or growth inhibition) at 12.5 ppm (Spodoptera littoralis [2]) | mortality at 200 ppm (Tetranychus urticae) | mortality at 200 ppm (Thrips tabaci)

Cc1cc(C2=NO[C@@](c3cc(Cl)c(Cl)c(Cl)c3)(C(F)(F)F)C2)ccc1C(=O)N[C@@H]1CON(S(=O)(=O)N(C)C)C1 (single isomer, unassigned) [Compound A112]
≥ 80%: percent effect (mortality or growth inhibition) at 200 ppm (Diabrotica balteata) | percent effect (mortality or growth inhibition) at 200 ppm (Euschistus heros) | mortality at 200 ppm (Myzus persicae) | percent effect (mortality or growth inhibition) at 200 ppm (Plutella xylostella) | mortality at 200 ppm (Spodoptera littoralis [1]) | percent control (mortality, anti-feedant effect or growth inhibition) at 12.5 ppm (Spodoptera littoralis [2]) | mortality at 200 ppm (Tetranychus urticae) | mortality at 200 ppm (Thrips tabaci)

Cc1cc(C2=NOC(c3cc(Cl)cc(C(F)(F)F)c3)(C(F)(F)F)C2)ccc1C(=O)NC1CON(S(C)(=O)=O)C1 (stereo not shown) [Compound A62]
≥ 80%: percent effect (mortality or growth inhibition) at 200 ppm (Diabrotica balteata) | percent effect (mortality or growth inhibition) at 200 ppm (Euschistus heros) | mortality at 200 ppm (Myzus persicae) | percent effect (mortality or growth inhibition) at 200 ppm (Plutella xylostella) | mortality at 200 ppm (Spodoptera littoralis [1]) | percent control (mortality, anti-feedant effect or growth inhibition) at 12.5 ppm (Spodoptera littoralis [2]) | mortality at 200 ppm (Tetranychus urticae) | mortality at 200 ppm (Thrips tabaci)

CNS(=O)(=O)N1C[C@@H](NC(=O)c2ccc(C3=NO[C@@](c4cc(Cl)c(F)c(Cl)c4)(C(F)(F)F)C3)cc2C)CO1 [Compound A137, 4-[(5S)-5-(3,5-dichloro-4-fluoro-phenyl)-5-(trifluoromethyl)-4H-isoxazol-3-yl]-2-methyl-N-[(4R)-2-(methylsulfamoyl)isoxazolidin-4-yl]benzamide]
≥ 80%: percent effect (mortality or growth inhibition) at 200 ppm (Diabrotica balteata) | percent effect (mortality or growth inhibition) at 200 ppm (Euschistus heros) | mortality at 200 ppm (Myzus persicae) | percent effect (mortality or growth inhibition) at 200 ppm (Plutella xylostella) | mortality at 200 ppm (Spodoptera littoralis [1]) | percent control (mortality, anti-feedant effect or growth inhibition) at 12.5 ppm (Spodoptera littoralis [2]) | mortality at 200 ppm (Tetranychus urticae) | mortality at 200 ppm (Thrips tabaci)

CCS(=O)(=O)N1C[C@@H](NC(=O)c2ccc(C3=NO[C@@](c4cc(Cl)c(Cl)c(Cl)c4)(C(F)(F)F)C3)cc2C)CO1 [Compound A118]
≥ 80%: percent effect (mortality or growth inhibition) at 200 ppm (Diabrotica balteata) | percent effect (mortality or growth inhibition) at 200 ppm (Euschistus heros) | mortality at 200 ppm (Myzus persicae) | percent effect (mortality or growth inhibition) at 200 ppm (Plutella xylostella) | mortality at 200 ppm (Spodoptera littoralis [1]) | percent control (mortality, anti-feedant effect or growth inhibition) at 12.5 ppm (Spodoptera littoralis [2]) | mortality at 200 ppm (Tetranychus urticae) | mortality at 200 ppm (Thrips tabaci)

Cc1cc(C2=NO[C@@](c3cc(Cl)c(Cl)c(Cl)c3)(C(F)(F)F)C2)ccc1C(=O)N[C@H]1CON(S(N)(=O)=O)C1 [Compound A68, 2-methyl-N-[(4R)-2-sulfamoylisoxazolidin-4-yl]-4-[(5S)-5-(3,4,5-trichlorophenyl)-5-(trifluoromethyl)-4H-isoxazol-3-yl]benzamide]
≥ 80%: percent effect (mortality or growth inhibition) at 200 ppm (Diabrotica balteata) | percent effect (mortality or growth inhibition) at 200 ppm (Euschistus heros) | mortality at 200 ppm (Myzus persicae) | percent effect (mortality or growth inhibition) at 200 ppm (Plutella xylostella) | mortality at 200 ppm (Spodoptera littoralis [1]) | percent control (mortality, anti-feedant effect or growth inhibition) at 12.5 ppm (Spodoptera littoralis [2]) | mortality at 200 ppm (Tetranychus urticae) | mortality at 200 ppm (Thrips tabaci)

Cc1cc(C2=NO[C@@](c3cc(Cl)c(F)c(Cl)c3)(C(F)(F)F)C2)ccc1C(=O)N[C@@H]1CON(S(=O)(=O)N(C)C)C1 (single isomer, unassigned) [Compound A34]
≥ 80%: percent effect (mortality or growth inhibition) at 200 ppm (Diabrotica balteata) | percent effect (mortality or growth inhibition) at 200 ppm (Euschistus heros) | mortality at 200 ppm (Myzus persicae) | percent effect (mortality or growth inhibition) at 200 ppm (Plutella xylostella) | mortality at 200 ppm (Spodoptera littoralis [1]) | percent control (mortality, anti-feedant effect or growth inhibition) at 12.5 ppm (Spodoptera littoralis [2]) | mortality at 200 ppm (Tetranychus urticae) | mortality at 200 ppm (Thrips tabaci)

Cc1cc(C2=NO[C@@](c3cc(Cl)cc(Cl)c3)(C(F)(F)F)C2)ccc1C(=O)NC1CON(S(C)(=O)=O)C1 (stereo partly shown) [Compound A40]
≥ 80%: percent effect (mortality or growth inhibition) at 200 ppm (Diabrotica balteata) | percent effect (mortality or growth inhibition) at 200 ppm (Euschistus heros) | mortality at 200 ppm (Myzus persicae) | percent effect (mortality or growth inhibition) at 200 ppm (Plutella xylostella) | mortality at 200 ppm (Spodoptera littoralis [1]) | percent control (mortality, anti-feedant effect or growth inhibition) at 12.5 ppm (Spodoptera littoralis [2]) | mortality at 200 ppm (Tetranychus urticae) | mortality at 200 ppm (Thrips tabaci)

Cc1cc(C2=NO[C@@](c3cc(Cl)c(Cl)c(Cl)c3)(C(F)(F)F)C2)ccc1C(=O)NC1CON(S(=O)(=O)N(C)CC#N)C1 (stereo partly drawn) [Compound A87, N-[2-[cyanomethyl(methyl)sulfamoyl]isoxazolidin-4-yl]-2-methyl-4-[(5S)-5-(3,4,5-trichlorophenyl)-5-(trifluoromethyl)-4H-isoxazol-3-yl]benzamide]
≥ 80%: percent effect (mortality or growth inhibition) at 200 ppm (Diabrotica balteata) | percent effect (mortality or growth inhibition) at 200 ppm (Euschistus heros) | mortality at 200 ppm (Myzus persicae) | percent effect (mortality or growth inhibition) at 200 ppm (Plutella xylostella) | mortality at 200 ppm (Spodoptera littoralis [1]) | percent control (mortality, anti-feedant effect or growth inhibition) at 12.5 ppm (Spodoptera littoralis [2]) | mortality at 200 ppm (Tetranychus urticae) | mortality at 200 ppm (Thrips tabaci)

CCNS(=O)(=O)N1C[C@@H](NC(=O)c2ccc(C3=NO[C@@](c4cc(Cl)c(Cl)c(Cl)c4)(C(F)(F)F)C3)cc2C)CO1 [Compound A136, N-[(4R)-2-(ethylsulfamoyl)isoxazolidin-4-yl]-2-methyl-4-[(5S)-5-(3,4,5-trichlorophenyl)-5-(trifluoromethyl)-4H-isoxazol-3-yl]benzamide]
≥ 80%: percent effect (mortality or growth inhibition) at 200 ppm (Diabrotica balteata) | percent effect (mortality or growth inhibition) at 200 ppm (Euschistus heros) | mortality at 200 ppm (Myzus persicae) | percent effect (mortality or growth inhibition) at 200 ppm (Plutella xylostella) | mortality at 200 ppm (Spodoptera littoralis [1]) | percent control (mortality, anti-feedant effect or growth inhibition) at 12.5 ppm (Spodoptera littoralis [2]) | mortality at 200 ppm (Tetranychus urticae) | mortality at 200 ppm (Thrips tabaci)

Cc1cc(C2=NOC(c3cc(Cl)c(Cl)c(Cl)c3)(C(F)(F)F)C2)ccc1C(=O)NC1CON(S(C)(=O)=O)C1 (stereo not shown) [Compound A61]
≥ 80%: percent effect (mortality or growth inhibition) at 200 ppm (Diabrotica balteata) | percent effect (mortality or growth inhibition) at 200 ppm (Euschistus heros) | mortality at 200 ppm (Myzus persicae) | percent effect (mortality or growth inhibition) at 200 ppm (Plutella xylostella) | mortality at 200 ppm (Spodoptera littoralis [1]) | percent control (mortality, anti-feedant effect or growth inhibition) at 12.5 ppm (Spodoptera littoralis [2]) | mortality at 200 ppm (Tetranychus urticae) | mortality at 200 ppm (Thrips tabaci)

Cc1cc(C2=NO[C@@](c3cc(Cl)c(F)c(Cl)c3)(C(F)(F)F)C2)ccc1C(=O)NC1CON(S(=O)(=O)N(C)C(=O)c2cccnc2)C1 (stereo partly shown) [Compound A78]
≥ 80%: percent effect (mortality or growth inhibition) at 200 ppm (Diabrotica balteata) | percent effect (mortality or growth inhibition) at 200 ppm (Euschistus heros) | mortality at 200 ppm (Myzus persicae) | percent effect (mortality or growth inhibition) at 200 ppm (Plutella xylostella) | mortality at 200 ppm (Spodoptera littoralis [1]) | percent effect (mortality, anti-feeding or growth inhibition) at 12.5 ppm (Spodoptera littoralis [2]; test rate 12.5 ppm, eggs, 6 days after infestation) | mortality at 200 ppm (Tetranychus urticae) | mortality at 200 ppm (Thrips tabaci)

CCS(=O)(=O)N1C[C@@H](NC(=O)c2ccc(C3=NO[C@@](c4cc(Cl)c(F)c(Cl)c4)(C(F)(F)F)C3)cc2Cl)CO1 [Compound A146]
≥ 80%: percent effect (mortality or growth inhibition) at 200 ppm (Diabrotica balteata) | percent effect (mortality or growth inhibition) at 200 ppm (Euschistus heros) | mortality at 200 ppm (Myzus persicae) | percent effect (mortality or growth inhibition) at 200 ppm (Plutella xylostella) | mortality at 200 ppm (Spodoptera littoralis [1]) | percent control (mortality, anti-feedant effect or growth inhibition) at 12.5 ppm (Spodoptera littoralis [2]) | mortality at 200 ppm (Tetranychus urticae) | mortality at 200 ppm (Thrips tabaci)

CCOC(=O)N(C)S(=O)(=O)N1CC(NC(=O)c2ccc(C3=NO[C@@](c4cc(Cl)c(F)c(Cl)c4)(C(F)(F)F)C3)cc2C)CO1 (stereo partly shown) [Compound A76]
≥ 80%: percent effect (mortality or growth inhibition) at 200 ppm (Diabrotica balteata) | percent effect (mortality or growth inhibition) at 200 ppm (Euschistus heros) | mortality at 200 ppm (Myzus persicae) | percent effect (mortality or growth inhibition) at 200 ppm (Plutella xylostella) | mortality at 200 ppm (Spodoptera littoralis [1]) | percent control (mortality, anti-feedant effect or growth inhibition) at 12.5 ppm (Spodoptera littoralis [2]) | mortality at 200 ppm (Tetranychus urticae) | mortality at 200 ppm (Thrips tabaci)
